The numbers were not newly measured in patent US11798661B2, “Methods for lowering blood pressure with a dihydropyridine-type calcium channel blocker pharmaceutical composition” (A[…] Limited, priority 2018, dated 2023), which cites them from elsewhere.

For this data set the following is noted: co-administration of 240 mL grapefruit juice with a single oral dose of amlodipine 10 mg.

With `CCOC(=O)C1=C(COCCN)NC(C)=C(C(=O)OC)C1c1ccccc1Cl` (racemic) [amlodipine, (RS)-3-ethyl 5-methyl 2-[(2-aminoethoxy)methyl]-4-(2-chlorophenyl)-6-methyl-1,4-dihydropyridine-3,5-dicarboxylate], the “effect on the pharmacokinetics of amlodipine” value is “no significant effect”.
